Experimental data taken from US4401604A, “Process for preparing thiosulfenamide derivatives of N-phosphonomethylglycine triesters” (Monsanto Company, priority 1981, dated 1983).

Tests used:
Type in all cases: in vivo
Johnsongrass [1] = assay: Post-emergence herbicidal activity, greenhouse; conditions: Table I, 4 WAT
In short: (§1)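 2–3-week-old plants, post-emergence atomizer spray, ~0.4% emulsifier; candidate from 1.0% stock in acetone, THF or water. Greenhouse hold; injury vs control at ~2/4 WAT.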

Morningglory [2] = assay: Post-emergence herbicidal activity, greenhouse
In short: as §1

Sorghum = assay: Post-emergence herbicidal activity, greenhouse; conditions: Table II
In short: as §1

Crabgrass = assay: Post-emergence herbicidal activity, greenhouse; conditions: Table II
In short: as §1

Smartweed [3] = assay: Post-emergence herbicidal activity, greenhouse
In short: as §1

Soybean = assay: Post-emergence herbicidal activity, greenhouse; conditions: Table II
In short: as §1

Quackgrass [4] = assay: Post-emergence herbicidal activity, greenhouse; conditions: Table I, 4 WAT
In short: as §1

Velvetleaf [5] = assay: Post-emergence herbicidal activity, greenhouse
In short: as §1

Barnyardgrass [6] = assay: Post-emergence herbicidal activity, greenhouse
In short: as §1

Lambsquarters [7] = assay: Post-emergence herbicidal activity, greenhouse
In short: as §1

Canada Thistle [8] = assay: Post-emergence herbicidal activity, greenhouse; conditions: Table I, 4 WAT
In short: as §1

Wheat = assay: Post-emergence herbicidal activity, greenhouse; conditions: Table II
In short: as §1

Yellow Nutsedge [9] = assay: Post-emergence herbicidal activity, greenhouse; conditions: Table I, 4 WAT
In short: as §1

Downy Brome [10] = assay: Post-emergence herbicidal activity, greenhouse
In short: as §1

Cocklebur [11] = assay: Post-emergence herbicidal activity, greenhouse
In short: as §1

Panicum Spp = assay: Post-emergence herbicidal activity, greenhouse; conditions: Table II
In short: as §1

Wild Buckwheat = assay: Post-emergence herbicidal activity, greenhouse; conditions: Table II
In short: as §1

Hemp Sesbania = assay: Post-emergence herbicidal activity, greenhouse; conditions: Table II
In short: as §1

Rice = assay: Post-emergence herbicidal activity, greenhouse; conditions: Table II
In short: as §1

Sugar Beet = assay: Post-emergence herbicidal activity, greenhouse; conditions: Table II
In short: as §1

Johnsongrass [12] = assay: Pre-emergent herbicidal activity; conditions: Table III; 11.2 kg/h; 2 WAT
Text: (§2) A good grade of top soil is placed in aluminum pans and compacted to a depth of 0.95 to 1.27 cm. from the top of each pan. A predetermined number of seeds or vegetative propagules of each of several plant species are placed on top of the soil in each pan and then pressed down. Herbicidal compositions prepared as in the previous example are applied by admixture with or incorporation in the top layer of soil.
(§3) In this method, the soil required to cover the seeds and propagules is weighed and admixed with a herbicidal composition containing a known amount of the active ingredient (compound of this invention). The pans are then filled with the admixture and leveled. Watering is carried out by permitting the soil in the pans to absorb moisture through apertures in the pan bottoms. The seed and propagule containing pans are placed on a wet sand bench and maintained for approximately two weeks under ordinary conditions of sunlight and watering. At the end of this period, the number of emerged plants of each species is noted and compared to an untreated control.
(§4) The pre-emergent herbicidal activity index used below is based upon average percent control of each species as follows:
(§5) Plant species in the table are identified by the same code letters used in the previous example.

Morningglory [13] = assay: Pre-emergent herbicidal activity; conditions: Table III; 11.2 kg/h; 2 WAT
Text: as §2, §3, §4, §5

Smartweed [14] = assay: Pre-emergent herbicidal activity; conditions: Table III; 11.2 kg/h; 2 WAT
Text: as §2, §3, §4, §5

Quackgrass [15] = assay: Pre-emergent herbicidal activity; conditions: Table III; 11.2 kg/h; 2 WAT
Text: as §2, §3, §4, §5

Velvetleaf [16] = assay: Pre-emergent herbicidal activity; conditions: Table III; 11.2 kg/h; 2 WAT
Text: as §2, §3, §4, §5

Barnyardgrass [17] = assay: Pre-emergent herbicidal activity; conditions: Table III; 11.2 kg/h; 2 WAT
Text: as §2, §3, §4, §5

Lambsquarters [18] = assay: Pre-emergent herbicidal activity; conditions: Table III; 11.2 kg/h; 2 WAT
Text: as §2, §3, §4, §5

Canada Thistle [19] = assay: Pre-emergent herbicidal activity; conditions: Table III; 11.2 kg/h; 2 WAT
Text: as §2, §3, §4, §5

Yellow Nutsedge [20] = assay: Pre-emergent herbicidal activity; conditions: Table III; 11.2 kg/h; 2 WAT
Text: as §2, §3, §4, §5

Downy Brome [21] = assay: Pre-emergent herbicidal activity; conditions: Table III; 11.2 kg/h; 2 WAT
Text: as §2, §3, §4, §5

Cocklebur [22] = assay: Pre-emergent herbicidal activity; conditions: Table III; 11.2 kg/h; 2 WAT
Text: as §2, §3, §4, §5

O=C(CN(CP(=O)(Oc1ccccc1)Oc1ccccc1)SSCCc1ccccc1)OCc1ccccc1 [IV, Glycine, N-[(diphenoxyphosphinyl)methyl]-N-[(2-phenylethyl)dithio]-, phenylmethyl ester]
3 (75-99% control): post-emergence herbicidal activity index (Lambsquarters [7]; Table I, 5.6 kg/h, 4 WAT) | post-emergence herbicidal activity index (Lambsquarters [7]; Table I, 11.2 kg/h, 4 WAT) | post-emergence herbicidal activity index (Lambsquarters [7]; Table II, 1.12 kg/h, 4 WAT) | post-emergence herbicidal activity index (Lambsquarters [7]; Table II, 5.6 kg/h, 4 WAT) | post-emergence herbicidal activity index (Wheat; 5.6 kg/h, 4 WAT) | post-emergence herbicidal activity index (Downy Brome [10]; Table II, 5.6 kg/h, 4 WAT) | post-emergence herbicidal activity index (Cocklebur [11]; Table I, 11.2 kg/h, 4 WAT) | post-emergence herbicidal activity index (Cocklebur [11]; Table II, 5.6 kg/h, 4 WAT) | post-emergence herbicidal activity index (Panicum Spp; 5.6 kg/h, 4 WAT) | post-emergence herbicidal activity index (Sugar Beet; 1.12 kg/h, 4 WAT)
0 (0-24% control): pre-emergent herbicidal activity index (Johnsongrass [12]) | pre-emergent herbicidal activity index (Morningglory [13]) | pre-emergent herbicidal activity index (Smartweed [14]) | pre-emergent herbicidal activity index (Velvetleaf [16]) | pre-emergent herbicidal activity index (Barnyardgrass [17]) | pre-emergent herbicidal activity index (Lambsquarters [18]) | pre-emergent herbicidal activity index (Yellow Nutsedge [20]) | pre-emergent herbicidal activity index (Downy Brome [21]) | pre-emergent herbicidal activity index (Cocklebur [22])
2 (50-74% control): post-emergence herbicidal activity index (Johnsongrass [1]; 5.6 kg/h) | post-emergence herbicidal activity index (Morningglory [2]; Table I, 5.6 kg/h, 4 WAT) | post-emergence herbicidal activity index (Morningglory [2]; Table I, 11.2 kg/h, 4 WAT) | post-emergence herbicidal activity index (Morningglory [2]; Table II, 5.6 kg/h, 4 WAT) | post-emergence herbicidal activity index (Sorghum; 5.6 kg/h, 4 WAT) | post-emergence herbicidal activity index (Crabgrass; 1.12 kg/h, 4 WAT) | post-emergence herbicidal activity index (Smartweed [3]; Table I, 11.2 kg/h, 4 WAT) | post-emergence herbicidal activity index (Smartweed [3]; Table II, 5.6 kg/h, 4 WAT) | post-emergence herbicidal activity index (Soybean; 5.6 kg/h, 4 WAT) | post-emergence herbicidal activity index (Quackgrass [4]; 5.6 kg/h) | post-emergence herbicidal activity index (Velvetleaf [5]; Table II, 5.6 kg/h, 4 WAT) | post-emergence herbicidal activity index (Barnyardgrass [6]; Table I, 5.6 kg/h, 4 WAT) | post-emergence herbicidal activity index (Barnyardgrass [6]; Table I, 11.2 kg/h, 4 WAT) | post-emergence herbicidal activity index (Wild Buckwheat; 5.6 kg/h, 4 WAT)
3 (75-100% control): pre-emergent herbicidal activity index (Canada Thistle [19])
1 (25-49% control): post-emergence herbicidal activity index (Smartweed [3]; Table I, 5.6 kg/h, 4 WAT) | post-emergence herbicidal activity index (Smartweed [3]; Table II, 1.12 kg/h, 4 WAT) | post-emergence herbicidal activity index (Quackgrass [4]; 11.2 kg/h) | post-emergence herbicidal activity index (Velvetleaf [5]; Table I, 11.2 kg/h, 4 WAT) | post-emergence herbicidal activity index (Canada Thistle [8]; 11.2 kg/h) | post-emergence herbicidal activity index (Wheat; 1.12 kg/h, 4 WAT) | post-emergence herbicidal activity index (Yellow Nutsedge [9]; 11.2 kg/h) | post-emergence herbicidal activity index (Downy Brome [10]; Table I, 11.2 kg/h, 4 WAT) | post-emergence herbicidal activity index (Cocklebur [11]; Table I, 5.6 kg/h, 4 WAT) | post-emergence herbicidal activity index (Cocklebur [11]; Table II, 1.12 kg/h, 4 WAT) | post-emergence herbicidal activity index (Hemp Sesbania; 5.6 kg/h, 4 WAT) | post-emergence herbicidal activity index (Rice; 5.6 kg/h, 4 WAT) | pre-emergent herbicidal activity index (Quackgrass [15])
4 (100% control): post-emergence herbicidal activity index (Crabgrass; 5.6 kg/h, 4 WAT) | post-emergence herbicidal activity index (Barnyardgrass [6]; Table II, 5.6 kg/h, 4 WAT) | post-emergence herbicidal activity index (Sugar Beet; 5.6 kg/h, 4 WAT)
0 (0- 24% control): post-emergence herbicidal activity index (Johnsongrass [1]; 11.2 kg/h) | post-emergence herbicidal activity index (Morningglory [2]; Table II, 0.28 kg/h, 2 WAT) | post-emergence herbicidal activity index (Morningglory [2]; Table II, 1.12 kg/h, 4 WAT) | post-emergence herbicidal activity index (Sorghum; 0.28 kg/h, 2 WAT) | post-emergence herbicidal activity index (Sorghum; 1.12 kg/h, 4 WAT) | post-emergence herbicidal activity index (Crabgrass; 0.28 kg/h, 2 WAT) | post-emergence herbicidal activity index (Smartweed [3]; Table II, 0.28 kg/h, 2 WAT) | post-emergence herbicidal activity index (Soybean; 0.28 kg/h, 2 WAT) | post-emergence herbicidal activity index (Soybean; 1.12 kg/h, 4 WAT) | post-emergence herbicidal activity index (Velvetleaf [5]; Table I, 5.6 kg/h, 4 WAT) | post-emergence herbicidal activity index (Velvetleaf [5]; Table II, 0.28 kg/h, 2 WAT) | post-emergence herbicidal activity index (Velvetleaf [5]; Table II, 1.12 kg/h, 4 WAT) | post-emergence herbicidal activity index (Barnyardgrass [6]; Table II, 0.28 kg/h, 2 WAT) | post-emergence herbicidal activity index (Barnyardgrass [6]; Table II, 1.12 kg/h, 4 WAT) | post-emergence herbicidal activity index (Lambsquarters [7]; Table II, 0.28 kg/h, 2 WAT) | post-emergence herbicidal activity index (Canada Thistle [8]; 5.6 kg/h) | post-emergence herbicidal activity index (Wheat; 0.28 kg/h, 2 WAT) | post-emergence herbicidal activity index (Yellow Nutsedge [9]; 5.6 kg/h) | post-emergence herbicidal activity index (Downy Brome [10]; Table I, 5.6 kg/h, 4 WAT) | post-emergence herbicidal activity index (Downy Brome [10]; Table II, 0.28 kg/h, 2 WAT) | post-emergence herbicidal activity index (Downy Brome [10]; Table II, 1.12 kg/h, 4 WAT) | post-emergence herbicidal activity index (Cocklebur [11]; Table II, 0.28 kg/h, 2 WAT) | post-emergence herbicidal activity index (Panicum Spp; 0.28 kg/h, 2 WAT) | post-emergence herbicidal activity index (Panicum Spp; 1.12 kg/h, 4 WAT) | post-emergence herbicidal activity index (Wild Buckwheat; 0.28 kg/h, 2 WAT) | post-emergence herbicidal activity index (Wild Buckwheat; 1.12 kg/h, 4 WAT) | post-emergence herbicidal activity index (Hemp Sesbania; 0.28 kg/h, 2 WAT) | post-emergence herbicidal activity index (Hemp Sesbania; 1.12 kg/h, 4 WAT) | post-emergence herbicidal activity index (Rice; 0.28 kg/h, 2 WAT) | post-emergence herbicidal activity index (Rice; 1.12 kg/h, 4 WAT) | post-emergence herbicidal activity index (Sugar Beet; 0.28 kg/h, 2 WAT)
